These results are taken from the NIST ThermoML archive (doi:10.1021/acs.jced.7b00601).

± gives the expanded uncertainty stated by the source.

For data set [1] the following is noted: Crystal; DTA.
A short description of data set [2]: Molar enthalpy of transition or fusion. The following applies: Crystal; DSC.

For the compound `COc1c(N2CCNC(C)C2)c(F)cc2c(=O)c(C(=O)O)cn(C3CC3)c12` (configuration not stated) [gatifloxacin], the Normal melting temperature in data set [1] is 162.00 ± 2.9 °C. In addition, the “Molar enthalpy of transition or fusion” value in data set [2] was 8.35 ± 0.232 kcal/mol.
